Data set [1] in a line: Expected valence charge of analytes and ions based on pKas. It counts as physicochemical. Particulars: for Expected valence charge: maximal negative charge, intraluminal pH of 12; for Valence charge level (Zanalyte): used in the empirical model, Example 2. From the text:
In order to investigate any dependency of the signal on the analyte concentration, the concentrations of the molecular analytes were varied from 10^−8 to 10^−2 M in 10^−5 M NaF solution. Because NaF dissociates into Na^+ and F^−, and F^− will form HF in solution (due to HF being a weak acid), it was important to ensure that the concentration of HF was negligible compared with the concentration of the molecular analytes and supporting electrolytes. […] The specific analytes used in this study were chosen to have distinct acid dissociation constants (pKas) and to be relatively similar in size (Table 2). […] NaCl was chosen as the supporting electrolyte in this pH experiment in order to maintain a homogeneous ion population with the titration reagents, NaOH and HCl. It was desirable to avoid using HF as a titration reagent, due to the risk of damaging the nanopore device and because HF is a weak acid. In low pH conditions, the concentration of undissociated HF would increase to non-negligible levels. Since HCl and NaOH are a strong acid and base, respectively, there was no risk of producing undissociated molecules at low or high pHs. […] In order to characterize this energetic balance, we estimate the pH of the intraluminal environment by considering the variable valence charges and pKas of the analytes. Table 3 lists the expected charge on each analyte at different pHs based on the pKas of the individual analytes.

A short description of data set [2]: Density and estimated spherical radius of analytes and supporting ions. It counts as physicochemical.
For data set [3] the following is noted: cited from earlier work.
The nature of data set [4]: Saturation of NaF solution. In kind it is physicochemical. Particulars: in this study. From the text: The SNR is consistent for electrolyte concentrations <1 M, and the sudden decrease in SNR at 1 M NaF is indicative of a saturation effect, where saturation of the solution would preclude significant changes to the electrochemical potential of the EDL. By considering the charge density and steady state double layer potential as response curves, we can explain the loss of signal quality at high concentrations of supporting electrolyte (FIG. 3(c)). The increase in steady-state potential and charge density (calculated from the model) slows at high concentrations, and a similar effect occurs experimentally to the steady state double layer potential. The decrease in slope of the response curves at high concentration will result in smaller signals from the analytes, resulting in the decrease in SNR observed at high concentrations of supporting electrolyte. Since the measured steady state potential and solution saturation follow similar curves, this may be a useful method for quantitatively characterizing solutions, as well as a method of characterizing individual analyte molecules.

The conditions of data set [5]: 21° C.; cited from earlier work.

Turning to `O=C(O)CC(O)(CC(=O)O)C(=O)O` [Citric Acid], the Expected valence charge in data set [1] is −3. For the same molecule, the “Valence charge at pH” value is reported as 0 in data set [1] (pH 1); 0 in data set [1] (pH 2, 3); −1 in data set [1] (pH 4); −2 in data set [1] (pH 5, 6); −3 in data set [1] (pH 7, 8, 9, 10); −3 in data set [1] (pH 11). In addition, the “Valence charge at pH” value in data set [1] (pH 12) is recorded as −3. In addition, in data set [1], the “Valence charge level (Zanalyte)” value is reported as −3. Further, the Estimated spherical radius in data set [2] is given as 0.37 nm.
Regarding `Oc1ccc(O)cc1` [Hydroquinone], the Expected valence charge in data set [1] was −1. Besides, the “Valence charge at pH” value in data set [1] (pH 1) is recorded as 0; in data set [1] (pH 2, 3), 0; in data set [1] (pH 4), 0; in data set [1] (pH 5, 6) it was 0; in data set [1] (pH 7, 8, 9, 10), 0; in data set [1] (pH 11), −1. In addition, the “Valence charge at pH” value in data set [1] (pH 12) is recorded as −1. Moreover, the “Valence charge level (Zanalyte)” value in data set [1] is on record as −1. For the same molecule, the Estimated spherical radius in data set [2] is listed as 0.32 nm. Besides, in data set [3], the “pKa 1” value is 10.35.
`[F-].[Na+]` [NaF]: in data set [4], the “Saturated NaF solution reached” value is “approximately 1 M”. Besides, in data set [5], the “Saturation of NaF” value is 0.96 M.
In data set [1], `[Na+]` [Na^+] displayed an Expected valence charge of 1. The Estimated spherical radius in data set [2] is 0.21 nm.
For `[K+]` [K^+] the same measures were 1 and 0.26 nm.
Taken in the same sequence, the figures for `F` [F−] were −1 and 0.17 nm.
Regarding `O=C(O)C(=O)O` [Oxalic acid], the Expected valence charge in data set [1] is given as −1. For the same molecule, the “Valence charge at pH” value is 0 in data set [1] (pH 1); −1 in data set [1] (pH 2, 3); −1 in data set [1] (pH 4); −1 in data set [1] (pH 5, 6); −1 in data set [1] (pH 7, 8, 9, 10); −1 in data set [1] (pH 11). The “Valence charge at pH” value in data set [1] (pH 12) is listed as −1. Also, the “Valence charge level (Zanalyte)” value in data set [1] is recorded as −1. The Estimated spherical radius in data set [2] is recorded as 0.27 nm.
Turning to `O=C1O[C@H]([C@@H](O)CO)C(O)=C1O` [L-Ascorbic acid], the Expected valence charge in data set [1] was −2. Also, the “Valence charge at pH” value in data set [1] (pH 1) is on record as 0; in data set [1] (pH 2, 3), 0; in data set [1] (pH 4) it was 0; in data set [1] (pH 5, 6) it was −1; in data set [1] (pH 7, 8, 9, 10), −1; in data set [1] (pH 11) it was −1. In data set [1] (pH 12), the “Valence charge at pH” value is listed as −2. Besides, the “Valence charge level (Zanalyte)” value in data set [1] is reported as −2. Moreover, the Estimated spherical radius in data set [2] was 0.35 nm. For the same molecule, the “pKa 2” value in data set [3] was 11.7.
For the molecule `Cl` [Cl−], the Estimated spherical radius in data set [2] is recorded as 0.21 nm.
